20 molecules from patent US8420657B2 (Novartis AG, priority 2008, dated 2013) can be followed below.

The target of assay [1] is T1, GST-JAK2(808-1132) (Homo sapiens, UniProt O60674).
T1 construct: GST-JAK2(808-1132); purchased Invitrogen (Carlsbad, USA) #4288
As to the kind of experiment: JAK2 kinase assay (Caliper mobility shift, LabChip 3000). In kind it is biochemical. In a few lines: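 Recombinant GST-JAK2(808-1132) kinase domain with FITC-labelled JAK3tide peptide substrate and ATP; 60 min at 30 °C, EDTA stop. Substrate/product ratio read by microfluidic mobility shift; compounds at 8 final concentrations, 10 to 0.003 μM.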

The test system of assay [2] is JAK1/JAK2-dependent nuclear translocation of STAT1-GFP in HT1080 fibrosarcoma cells. As to the kind of experiment: STAT1 nuclear translocation assay (Cellomics), IFN-γ stimulated HT1080 STAT1-GFP cells. In kind it is cell-based. The note with it: Homo sapiens, HT-1080, STAT1 translocation pathway. An excerpt: The medium-throughput (96-well format) cellular automated fluorescence microscopy Cellomics assay can be routinely used to assess the functional activation of Janus Kinases (JAKs), based on the nuclear translocation of their substrate, Signal Transducer and Activator of Transcription (STAT). Nuclear translocation can be monitored either in HT1080 fibrosarcoma cells stably transfected with STAT1 fused to Green Fluorescence Protein (GFP) or in U-2 OS osteosarcoma cells stably transfected with STAT5 fused to Green Fluorescence Protein (GFP). Stimulation of HT1080 cells with interferon-γ (IFN-γ) results in JAK1/JAK2-dependent nuclear translocation of STAT1-GFP, whereas stimulation of U-2 OS cells with recombinant human erythropoietin (rhEpo) results in JAK2-dependent nuclear translocation of STAT5-GFP, both of which can be quantified using the Cellomics Cyto/NucTrans software package. This assay may be used to provide an assessment of the nuclear-cytoplasmic differential (NCD) of STAT-GFP using Hoechst dye to define the boundaries of the nucleus.
HT1080 fibrosarcoma cells may be obtained from ATCC and can be cultured in alpha Modified Eagle Medium with 10% FCS. Cells can be transfected with pEGFP-N2 STAT1 using Fugene 6 Transfection Reagent following the manufacturers' protocol. 24 hours after transfection the medium can be replaced and selected in 1 mg/ml Geneticin.
Compounds can be dissolved in DMSO to a final stock concentration of 10 mM and stored as aliquots at 4° C. Compounds may be pre-diluted in 100% DMSO at 10 mM, 3 mM 1 mM, 0.3 mM, 0.1 mM, 0.03 mM, 0.01 mM and 0.003 mM. Subsequently, compounds may be diluted in medium and added in 50 μl to the cells. The final compound concentrations tested may be 10 μM, 3 μM 1 μM, 0.3 μM, 0.1 μM, 0.03 μM, 0.01 μM and 0.003 μM and the final DMSO concentration can be 0.1%.
HT1080 STAT1-GFP cells may be seeded at a density of 10,000 cells per well in clear-bottom black 96-well Packard View-Plates™. 16-24 hours later, the cells can be treated for 2 hours with 100 ng/ml IFN-γ, washed twice in pre-warmed PBS and fixed in 200 μl of pre-warmed fixation solution (PBS, 3.7% Formaldehyde) for 10 minutes. The plates may be washed twice in 200 μl PBS and incubated, protected from light, in 100 μl of DNA-staining solution (PBS, 0.5 μg/ml Hoechst-33342) for 1 minute. The plates may then be washed once in PBS, and 200 μl PBS finally added per well. The plates, being finally covered with a black adhesive, may be either read directly or stored at 4° C. for later imaging. Where appropriate, the compounds may be added 30 min before stimulation with IFN-γ.
The plates can be read on a Cellomics® ArrayscanII automated fluorescence microscope plate reader equipped with a Mercury-Xenon white light illumination source and a Zeiss Axiovert inverted microscope, using the XF100 dichroic/emission filter cube and matching excitation filters, 10× magnification, and a 0.3 numerical aperture objective. Image acquisition and analysis can be performed using a customized protocol based on the ‘NuclearTranslocation’ Bioapplication. For each well, multiple images (fields) can be acquired until a minimum of 1000 cells are counted using two 2 channels: Channel 1 (Hoechst)=focus+nuclear mask, Channel 2 (GFP)=signal quantification in mask areas as outlined below. Nuclei may be first identified based on the Hoechst staining and a mask generated for each nucleus that then serves as a template to generate a circle (eroded inwards by 1 pixel) and a 3 pixel-wide collar-like ring (off-set outwards by 1 pixel), in which the nuclear and cytoplasmic intensity of GFP, respectively, are quantified in the corresponding channel. High content analysis yields numerous measurements per cell and the GFP intensity differential between the nuclear and the cytoplasmic masks may be chosen as a measure of sub-cellular STAT-GFP relocation. The resulting values may be averaged for all cells in the well to return a single measurement plus standard deviation. […]

One may read the IC50 as the concentration needed to halve the response being measured.

T1 sequence (O60674 808-1132): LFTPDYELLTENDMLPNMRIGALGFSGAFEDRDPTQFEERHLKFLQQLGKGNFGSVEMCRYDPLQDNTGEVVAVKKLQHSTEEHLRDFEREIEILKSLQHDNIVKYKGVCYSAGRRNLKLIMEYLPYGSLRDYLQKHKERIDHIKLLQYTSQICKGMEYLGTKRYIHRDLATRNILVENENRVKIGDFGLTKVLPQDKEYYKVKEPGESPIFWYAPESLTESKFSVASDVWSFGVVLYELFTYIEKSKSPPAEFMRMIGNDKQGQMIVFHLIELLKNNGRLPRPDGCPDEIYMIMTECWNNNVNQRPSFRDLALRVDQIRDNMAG

With `Cc1ccc(Nc2ncc3ccn(-c4cc(F)c(C(=O)N5CCOCC5)c(F)c4)c3n2)cn1` [Example 219, {2,6-Difluoro-4-[2-(6-methyl-pyridin-3-ylamino)-pyrrolo[2,3-d]pyrimidin-7-yl]-phenyl}-morpholin-4-yl-methanone], the IC50 in assay [1] stood at 7.7 nM; in assay [2] it was 518 nM.
In the same order, the values of `OCCN1CCN(c2ccc(Nc3ncc4ccn(-c5cc(F)c(CN6CCOCC6)c(F)c5)c4n3)cn2)CC1` [Example 265, 2-(4-{5-[7-(3,5-Difluoro-4-morpholin-4-ylmethyl-phenyl)-7H-pyrrolo[2,3-d]pyrimidin-2-ylamino]-pyridin-2-yl}-piperazin-1-yl)-ethanol] are under 3 nM and 40 nM.
The like results for `Cc1cc(Nc2ncc3ccn(-c4cc(F)c(CN5CCOCC5)c(F)c4)c3n2)ccc1F` [Example 131, [7-(3,5-Difluoro-4-morpholin-4-ylmethyl-phenyl)-7H-pyrrolo[2,3-d]pyrimidin-2-yl]-(4-fluoro-3-methyl-phenyl)-amine] were, in that order, 16 nM and 1500 nM.
The like results for `O=C(c1cncc(Nc2ncc3ccn(-c4cc(F)c(CN5CCOCC5)c(F)c4)c3n2)c1)N1CCOCC1` [Example 248, {5-[7-(3,5-Difluoro-4-morpholin-4-ylmethyl-phenyl)-7H-pyrrolo[2,3-d]pyrimidin-2-ylamino]-pyridin-3-yl}-morpholin-4-yl-methanone] were, in that order, 24 nM and 4270 nM.
`CC(C)Oc1ccc(Nc2ncc3ccn(-c4ccc(C(=O)N5CCOCC5)c(F)c4)c3n2)cn1` [Example 226, {2-Fluoro-4-[2-(6-isopropoxy-pyridin-3-ylamino)-pyrrolo[2,3-d]pyrimidin-7-yl]-phenyl}-morpholin-4-yl-methanone]: the values for the half-inhibitory concentration (IC50) in assay [1] and in assay [2] were 10.5 nM and 666 nM, respectively.
`Cc1ccc(Nc2ncc3ccn(-c4ccc(CC(=O)N5CCOCC5)cc4)c3n2)cc1C` [Example 166, 2-{4-[2-(3,4-Dimethyl-phenylamino)-pyrrolo[2,3-d]pyrimidin-7-yl]-phenyl}-1-morpholin-4-yl-ethanone]: the concentration for half-maximal inhibition (IC50) in assay [1] was determined as 3.4 nM; in assay [2], 145 nM.
In the same order, the values of `Cc1cc(Nc2ncc3ccn(-c4ccc(S(C)(=O)=O)cc4)c3n2)ccc1C(=O)N1CCCC1` [Example 75, {4-[7-(4-Methanesulfonyl-phenyl)-7H-pyrrolo[2,3-d]pyrimidin-2-ylamino]-2-methyl-phenyl}-pyrrolidin-1-yl-methanone] are under 3 nM and 82.5 nM.
The like results for `COCc1ccc(Nc2ncc3ccn(-c4cc(F)c(CN5CCOCC5)c(F)c4)c3n2)cc1` [Example 135, [7-(3,5-Difluoro-4-morpholin-4-ylmethyl-phenyl)-7H-pyrrolo[2,3-d]pyrimidin-2-yl]-(4-methoxymethyl-phenyl)-amine] were, in that order, 4.9 nM and 420 nM.
In the same order, the values of `COCc1ccc(Nc2ncc3ccn(-c4ccc(CN5CCOCC5)c(Cl)c4)c3n2)cc1` [Example 176, [7-(3-Chloro-4-morpholin-4-yl methyl-phenyl)-7H-pyrrolo[2,3-d]pyrimidin-2-yl]-(4-methoxymethyl-phenyl)-amine] are 7.3 nM and 1550 nM.
For the molecule `C[C@@H]1CN(c2ccc(Nc3ncc4ccn(-c5cc(F)c(C(=O)N6CCOCC6)c(F)c5)c4n3)cn2)C[C@H](C)N1` [Example 266, (4-{2-[6-(cis-3,5-Dimethyl-piperazin-1-yl)-pyridin-3-ylamino]-pyrrolo[2,3-d]pyrimidin-7-yl}-2,6-difluoro-phenyl)-morpholin-4-yl-methanone], the results for the IC50 in assay [1] and in assay [2] were 8.4 nM and 150 nM, respectively.
In the same order, the values of `Cc1cc(Nc2ncc3ccn(-c4cc(F)c(C(=O)N5CCOCC5)c(F)c4)c3n2)ccc1F` [Example 213, {2,6-Difluoro-4-[2-(4-fluoro-3-methyl-phenylamino)-pyrrolo[2,3-d]pyrimidin-7-yl]-phenyl}-morpholin-4-yl-methanone] are 5.9 nM and 728 nM.
In the same order, the values of `CS(=O)(=O)c1ccc(-n2ccc3cnc(Nc4ccc(OCCN5CCOCC5)cc4)nc32)cc1` [Example 34, [7-(4-Methanesulfonyl-phenyl)-7H-pyrrolo[2,3-d]pyrimidin-2-yl]-[4-(2-morpholin-4-yl-ethoxy)-phenyl]-amine] are under 3 nM and 69.5 nM.
In the same order, the values of `N#Cc1ccc(Nc2ncc3ccn(-c4cc(F)c(CN5CCS(=O)(=O)CC5)c(F)c4)c3n2)cc1` [Example 185, 4-{7-[4-(1,1-Dioxido-thiomorpholin-4-ylmethyl)-3,5-difluoro-phenyl]-7H-pyrrolo[2,3-d]pyrimidin-2-ylamino}-benzonitrile] are under 3 nM and 290 nM.
For the molecule `C[C@@H]1CN(c2ccc(Nc3ncc4ccn(-c5cc(F)c(CN6CCOCC6)c(F)c5)c4n3)cn2)C[C@H](C)N1` [Example 267, [7-(3,5-Difluoro-4-morpholin-4-ylmethyl-phenyl)-7H-pyrrolo[2,3-d]pyrimidin-2-yl]-[6-(cis-3,5-dimethyl-piperazin-1-yl)-pyridin-3-yl]-amine], the IC50 was under 3 nM in assay [1] and 50 nM in assay [2].
For `Cc1cc(-n2ccc3cnc(Nc4ccc(OC(C)C)cc4)nc32)ccc1C(=O)N1CCOCC1` [Example 100, {4-[2-(4-Isopropoxy-phenylamino)-pyrrolo[2,3-d]pyrimidin-7-yl]-2-methyl-phenyl}-morpholin-4-yl-methanone], the IC50 in assay [1] is under 3 nM; in assay [2] it was 510 nM.
In the same order, the values of `COc1cc(Nc2ncc3ccn(-c4ccc(C(=O)N5CCOCC5)c(F)c4)c3n2)ccc1Cl` [Example 295, {4-[2-(4-Chloro-3-methoxy-phenylamino)-pyrrolo[2,3-d]pyrimidin-7-yl]-2-fluoro-phenyl}-morpholin-4-yl-methanone] are 14.5 nM and 795 nM.
In the same order, the values of `Cc1ccc(Nc2ncc3ccn(-c4ccc(CC(=O)N5CCN(C)CC5)cc4)c3n2)cc1` [Example 149, 1-(4-Methyl-piperazin-1-yl)-2-[4-(2-p-tolylamino-pyrrolo[2,3-d]pyrimidin-7-yl)-phenyl]-ethanone] are 130 nM and 1510 nM.
Regarding `CCN1CCN(Cc2c(F)cc(-n3ccc4cnc(Nc5ccc(C)c(Cl)c5)nc43)cc2F)CC1` [Example 130, (3-Chloro-4-methyl-phenyl)-{7-[4-(4-ethyl-piperazin-1-ylmethyl)-3,5-difluoro-phenyl]-7H-pyrrolo[2,3-d]pyrimidin-2-yl}-amine], the results for the IC50 in assay [1] and in assay [2] were 115 nM and 8410 nM, respectively.
In the same order, the values of `CCOc1ccc(Nc2ncc3ccn(-c4ccc(CC(=O)N5CCN(CC)CC5)cc4)c3n2)cc1OCC` [Example 165, 2-{4-[2-(3,4-Diethoxy-phenylamino)-pyrrolo[2,3-d]pyrimidin-7-yl]-phenyl}-1-(4-ethyl-piperazin-1-yl)-ethanone] are under 3 nM and 125 nM.
The like results for `Cc1ccc(Nc2ncc3cc(C)n(-c4ccc(CC(=O)N5CCN(C)CC5)cc4)c3n2)cc1C` [Example 161, 2-{4-[2-(3,4-Dimethyl-phenylamino)-6-methyl-pyrrolo[2,3-d]pyrimidin-7-yl]-phenyl}-1-(4-methyl-piperazin-1-yl)-ethanone] were, in that order, 870 nM and 9350 nM.
